# Source: patent publication US5869494A, “Uses for barbituric acid analogs” (priority 1997, dated 1999)
# Key:
# Assay in all cases: NCI tumor cell line screen (SRB assay)
# Format in all cases: cell-based
# Set-up in all cases: activity: dose or concentration left out as unconfirmed
# SK-MEL-2 = conditions: Homo sapiens, read-out: PERCENT GROWTH
# Protocol: (§1) The National Cancer Institute carried out the studies at the direction of the present inventor.
# (§2) In the tests, the National Cancer Institute used the SRB (sulforhodamine B) assay as described by Skehan et al., (Journal of the National Cancer Institute, 82:13, Jul. 4, 1990, 1107-1112). Briefly, the assay is as follows. TCA-fixed cells were stained for 30 minutes with 0.4% (wt/vol) SRB dissolved in 1% acetic acid. At the end of the staining period, SRB was removed and cultures were quickly rinsed four times with 1% acetic acid to remove unbound dye. The acetic acid was poured directly into the culture wells from a beaker. […] Residual wash solution was removed by sharply flicking plates over a sink, which ensured the complete removal of rinsing solution. […] After being rinsed, the cultures were air dried until no standing moisture was visible. Bound dye was solubilized with 10 mM unbuffered Tris base (pH 10.5) for 5 minutes on a gyratory shaker.
# (§3) Optical density (OD) was read in either a UVmax microtiter plate reader (Molecular Devices, Menlo Park, Calif.) or a Beckman DU-70 spectrophotometer. For maximum sensitivity, OD was measured at 564 nm. Because readings were linear with dye concentrations only below 1.8 OD units, however, suboptimal wavelengths were generally used, so that all samples in an experiment remained within the linear OD range. With most cell lines, wavelengths of approximately 490-530 nm worked well for this purpose.
# (§4) Nine different non-small cell lung carcinoma cell lines, six different colon carcinoma cell lines, six different CNS (central nervous system) carcinoma cell lines, seven different melanoma cell lines, six different ovarian carcinoma cell lines, and eight different renal carcinoma cell lines were tested.
# SN12C = conditions: Homo sapiens, read-out: PERCENT GROWTH
# Protocol: as §1, §2, §3, §4
# KM12 = conditions: Homo sapiens, read-out: PERCENT GROWTH
# Protocol: as §1, §2, §3, §4
# IGROV1 = conditions: Homo sapiens, IGROV-1, read-out: PERCENT GROWTH
# Protocol: as §1, §2, §3, §4
# EKVX = conditions: Homo sapiens, read-out: PERCENT GROWTH
# Protocol: as §1, §2, §3, §4
# NCI-H522 = conditions: Homo sapiens, read-out: PERCENT GROWTH
# Protocol: as §1, §2, §3, §4
# 786-0 = conditions: Homo sapiens, read-out: PERCENT GROWTH
# Protocol: as §1, §2, §3, §4
# SNB-75 = conditions: Homo sapiens, read-out: PERCENT GROWTH
# Protocol: as §1, §2, §3, §4
# PK-10 = conditions: Homo sapiens, read-out: PERCENT GROWTH
# Protocol: as §1, §2, §3, §4
# LOX IMVI = conditions: Homo sapiens, read-out: PERCENT GROWTH
# Protocol: as §1, §2, §3, §4
# NCI-H460 = conditions: Homo sapiens, read-out: PERCENT GROWTH
# Protocol: as §1, §2, §3, §4
# OVCAR-4 = conditions: Homo sapiens, read-out: PERCENT GROWTH
# Protocol: as §1, §2, §3, §4
# HOP-62 = conditions: Homo sapiens, read-out: PERCENT GROWTH
# Protocol: as §1, §2, §3, §4
# UACC-257 = conditions: Homo sapiens, read-out: PERCENT GROWTH
# Protocol: as §1, §2, §3, §4
# SF-539 = conditions: Homo sapiens, read-out: PERCENT GROWTH
# Protocol: as §1, §2, §3, §4
# SK-OV-3 = conditions: Homo sapiens, read-out: PERCENT GROWTH
# Protocol: as §1, §2, §3, §4
# SW-620 = conditions: Homo sapiens, read-out: PERCENT GROWTH
# Protocol: as §1, §2, §3, §4
smiles,measurement,setting,value
"CCCCN1C(=O)CC(=O)N(CCCC)C1=S [Compound C1, 4,6(1H, 5H)-pyrimidinedione, 1,3-dibutyldihydro-2-thioxo]",activity,SK-MEL-2; 10^-3.0 Molar,-55%
same,activity at 100 µM,SK-MEL-2; 10^-4.0 Molar,87%
same,activity at 10 µM,SK-MEL-2; 10^-5.0 Molar,100%
same,activity at 1 µM,SK-MEL-2; 10^-6.0 Molar,106%
same,activity at 0.1 µM,SK-MEL-2; 10^-7.0 Molar,110%
same,activity,SN12C; 10^-3.0 Molar,-42%
same,activity at 100 µM,SN12C; 10^-4.0 Molar,62%
same,activity at 10 µM,SN12C; 10^-5.0 Molar,89%
same,activity at 1 µM,SN12C; 10^-6.0 Molar,58%
same,activity at 0.1 µM,SN12C; 10^-7.0 Molar,90%
same,activity,KM12; 10^-3.0 Molar,-90%
same,activity at 100 µM,KM12; 10^-4.0 Molar,76%
same,activity at 10 µM,KM12; 10^-5.0 Molar,102%
same,activity at 1 µM,KM12; 10^-6.0 Molar,101%
same,activity at 0.1 µM,KM12; 10^-7.0 Molar,101%
same,activity,IGROV1; 10^-3.0 Molar,-85%
same,activity at 100 µM,IGROV1; 10^-4.0 Molar,88%
same,activity at 10 µM,IGROV1; 10^-5.0 Molar,103%
same,activity at 1 µM,IGROV1; 10^-6.0 Molar,107%
same,activity at 0.1 µM,IGROV1; 10^-7.0 Molar,105%
same,activity,EKVX; 10^-3.0 Molar,-69%
same,activity at 100 µM,EKVX; 10^-4.0 Molar,94%
same,activity at 10 µM,EKVX; 10^-5.0 Molar,104%
same,activity at 1 µM,EKVX; 10^-6.0 Molar,106%
same,activity at 0.1 µM,EKVX; 10^-7.0 Molar,98%
same,activity,NCI-H522; 10^-3.0 Molar,-82%
same,activity at 100 µM,NCI-H522; 10^-4.0 Molar,47%
same,activity at 10 µM,NCI-H522; 10^-5.0 Molar,104%
same,activity at 1 µM,NCI-H522; 10^-6.0 Molar,102%
same,activity at 0.1 µM,NCI-H522; 10^-7.0 Molar,100%
same,activity,786-0; 10^-3.0 Molar,-100%
same,activity at 100 µM,786-0; 10^-4.0 Molar,87%
same,activity at 10 µM,786-0; 10^-5.0 Molar,115%
same,activity at 1 µM,786-0; 10^-6.0 Molar,82%
same,activity,SNB-75; 10^-3.0 Molar,-65%
same,activity at 100 µM,SNB-75; 10^-4.0 Molar,83%
same,activity at 10 µM,SNB-75; 10^-5.0 Molar,120%
same,activity at 1 µM,SNB-75; 10^-6.0 Molar,113%
same,activity at 0.1 µM,SNB-75; 10^-7.0 Molar,106%
same,activity,PK-10,-19%
same,activity at 0.1 µM,PK-10,94%
same,activity at 1 µM,PK-10,94%
same,activity at 10 µM,PK-10,98%
same,activity at 100 µM,PK-10,74%
same,activity,LOX IMVI; 10^-3.0 Molar,-100%
same,activity at 100 µM,LOX IMVI; 10^-4.0 Molar,65%
same,activity at 10 µM,LOX IMVI; 10^-5.0 Molar,102%
same,activity at 1 µM,LOX IMVI; 10^-6.0 Molar,106%
same,activity at 0.1 µM,LOX IMVI; 10^-7.0 Molar,101%
same,activity,NCI-H460; 10^-3.0 Molar,-54%
same,activity at 100 µM,NCI-H460; 10^-4.0 Molar,82%
same,activity at 10 µM,NCI-H460; 10^-5.0 Molar,97%
same,activity at 1 µM,NCI-H460; 10^-6.0 Molar,100%
same,activity at 0.1 µM,NCI-H460; 10^-7.0 Molar,99%
same,activity,OVCAR-4; 10^-3.0 Molar,-75%
same,activity at 100 µM,OVCAR-4; 10^-4.0 Molar,66%
same,activity at 10 µM,OVCAR-4; 10^-5.0 Molar,105%
same,activity at 1 µM,OVCAR-4; 10^-6.0 Molar,104%
same,activity at 0.1 µM,OVCAR-4; 10^-7.0 Molar,101%
same,activity,HOP-62; 10^-3.0 Molar,-100%
same,activity at 100 µM,HOP-62; 10^-4.0 Molar,93%
same,activity at 10 µM,HOP-62; 10^-5.0 Molar,96%
same,activity at 1 µM,HOP-62; 10^-6.0 Molar,99%
same,activity at 0.1 µM,HOP-62; 10^-7.0 Molar,98%
same,activity,UACC-257; 10^-3.0 Molar,-77%
same,activity at 100 µM,UACC-257; 10^-4.0 Molar,75%
same,activity at 10 µM,UACC-257; 10^-5.0 Molar,96%
same,activity at 1 µM,UACC-257; 10^-6.0 Molar,102%
same,activity at 0.1 µM,UACC-257; 10^-7.0 Molar,102%
same,activity,SF-539; 10^-3.0 Molar,-100%
same,activity at 100 µM,SF-539; 10^-4.0 Molar,72%
same,activity at 10 µM,SF-539; 10^-5.0 Molar,101%
same,activity at 1 µM,SF-539; 10^-6.0 Molar,104%
same,activity at 0.1 µM,SF-539; 10^-7.0 Molar,95%
same,activity,SK-OV-3; 10^-3.0 Molar,-100%
same,activity at 100 µM,SK-OV-3; 10^-4.0 Molar,85%
same,activity at 10 µM,SK-OV-3; 10^-5.0 Molar,92%
same,activity at 1 µM,SK-OV-3; 10^-6.0 Molar,90%
same,activity at 0.1 µM,SK-OV-3; 10^-7.0 Molar,95%
same,activity,SW-620; 10^-3.0 Molar,-39%
same,activity at 100 µM,SW-620; 10^-4.0 Molar,85%
same,activity at 10 µM,SW-620; 10^-5.0 Molar,99%
same,activity at 1 µM,SW-620; 10^-6.0 Molar,100%
same,activity at 0.1 µM,SW-620; 10^-7.0 Molar,110%
